Data set [1] relates to weeds. In words: Pre-emergence test, activity against weeds. The class given is in vivo. As to conditions: soil sprayed about 24 hours after sowing, rated after three weeks. As to the method: (§1) Pre-Emergence Test Solvent: 5 parts by weight of acetone Emulsifier: 1 part by weight of alkylaryl polyglycol ether To produce a suitable preparation of active compound, 1 part by weight of active compound is mixed with the stated amount of solvent, the stated amount of emulsifier is added and the concentrate is diluted with water to the desired concentration. Seeds of the test plants are sown in normal soil. After about 24 hours, the soil is sprayed with the preparation of active compound such that the particular amount of active compound is applied per unit area. The concentration of the spray liquor is chosen such that the particular amount of active compound desired is applied in 1000 liters of water per hectare. After three weeks, the degree of damage to plants is rated in % damage in comparison to the development of the untreated control. The figures denote: • 0%=no effect (like untreated control) • 100%=total destruction

In data set [2] the test system is weeds. In words: Post-emergence test, activity against weeds. As to conditions: test plants of 5-15 cm sprayed, rated after three weeks. The class given is in vivo. As to the method: Solvent: 5 parts by weight of acetone
Emulsifier: 1 part by weight of alkylaryl polyglycol ether
To produce a suitable preparation of active compound, 1 part by weight of active compound is mixed with the stated amount of solvent, the stated amount of emulsifier is added and the concentrate is diluted with water to the desired concentration.
Test plants of a height of 5-15 cm are sprayed with the preparation of active compound such that the particular amounts of active compound are applied per unit area. The concentration of the spray liquor is chosen such that the particular amounts of active compound desired are applied in 10001 of water/ha.
After three weeks, the degree of damage to the plants is rated in % damage in comparison to the development of the untreated control.
• 0%=no effect (like untreated control) • 100%=total destruction

The nature of data set [3]: log P by HPLC on reversed-phase column (C 18), acidic range. Type of data set: physicochemical. The protocol: Temperature: 43° C. […] The log P values given in Table 3 were determined in accordance with EEC Directive 79/831 Annex V.A8 by HPLC (High Performance Liquid Chromatography) on a reversed-phase column (C 18). Temperature: 43° C. […] The log P values given in Tables 4 were determined in accordance with EEC Directive 79/831 Annex V.A8 by HPLC (High Performance Liquid Chromatography) on a reversed-phase column (C 18). Temperature: 43° C.

In data set [4] the test system is crop plants such as, for example, corn. Briefly: Pre-emergence test, tolerance by crop plants. Type of data set: in vivo. The conditions noted are these: rated after three weeks. As to the method:
as §1

The mark [5] stands for this setting: marked a): acidic range, 0.1% aqueous phosphoric acid/acetonitrile gradient, HPLC reversed-phase C 18, 43° C., Table 1.

Where two headings read alike, the source gives them in different places. Marks after values point to notes of the source that are not given here.

As for `CCOc1nn(Cc2cc(C(F)(F)F)ccc2C(=O)c2cnn(CC)c2O)c(=O)n1C` [Example 2], the “activity against weeds (degree of damage)” value in data set [1] and in data set [2] was “strong activity” each time. In data set [3] (setting [5]), the logP entry is recorded as “logP = 2.34^a)”. For the same molecule, the “tolerance by crop plants” value in data set [4] was “tolerated well”.

With `CCn1ncc(C(=O)c2ccc(C(F)(F)F)cc2Cn2nc(SC)n(C)c2=O)c1O` [Example 3], the “activity against weeds (degree of damage)” value in data set [1] and in data set [2] was “strong activity” each time. Besides, the logP result in data set [3] (setting [5]) is on record as “logP = 2.22^a)”. Besides, in data set [4], the “tolerance by crop plants” value is “tolerated well”.

As a reminder, the melting point is the temperature of the solid-liquid transition. `Cn1c(C(F)(F)F)nn(Cc2c(Cl)ccc(C(=O)O)c2Cl)c1=O` [III-3, 4-methyl-5-trifluoromethyl-2-(2,6-dichloro-3-carboxy-benzyl)-2,4-dihydro-3H-1,2,4-triazol-3-one] came in with a melting point of 207 °C.

`COC(=O)c1ccc(Cl)c(Cn2nc(C(F)(F)F)n(C)c2=O)c1Cl` [IV-2, 4-methyl-5-trifluoromethyl-2-(2,6-dichloro-3-methoxycarbonyl-benzyl)-2,4-dihydro-3H-1,2,4-triazol-3-one] had a melting point of 109 °C.

For the molecule `CCOc1nn(Cc2cc(I)ccc2C(=O)OC)c(=O)n1C` [IV-116], the logP result in data set [3] is “logP = 2.68^a)”.

On to `CCOc1nn(Cc2cc(C(F)(F)F)ccc2C(=O)OC)c(=O)n1C` [IV-117], for which the logP result in data set [3] is on record as “logP = 2.74^a)”.

On to `COC(=O)c1ccc(C(F)(F)F)cc1Cn1nc(SC)n(C)c1=O` [IV-118], for which the logP result in data set [3] is recorded as “logP = 2.65^a)”.

In the case of `CCOC(=O)c1ccc(C(F)(F)F)cc1Cn1nc(Br)n(C)c1=O` [IV-119], the logP entry in data set [3] is recorded as “logP = 2.96^a)”.

For the origin of these results see patent US7279444B2, “Substituted benzoylpyrazoles” (Bayer CropScience GmbH, priority 1999, dated 2007).
